Assay results as given in patent US20260053931A1, “MDM2 TARGETING PROTACS” (THE WISTAR INSTITUTE OF ANATOMY AND BIOLOGY, priority 2023, published 2026).

Key:
VHL = VHL (Homo sapiens, UniProt P40337); experiment: HTRF binding assay for VHL (Table 2)
Description: (§1) Biochemical assays in 384-well format have established to assess the binding of newly synthesized PROTACs to the appropriate E3 ligase using HTRF technology. In these assays an anti-HIS antibody conjugated to terbium was used as the donor fluor, and either a Cy5 labeled small molecule probe, or a biotinylated peptide that is bound to a streptavidin acceptor.

Mdm2 [1] = molecular target: T1, Mdm2 (Homo sapiens, UniProt Q00987); experiment: In-Cell Western, mut p53 MDA-MB-231 cell line; assay type: cell-based; parameters: endogenous in cells; host or cells: MCF7 (A8); MDA-MB-231 (A9); conditions: mutant p53 MDA-MB-231
Protocol: (§2) Cells were seeded at decreasing cell number from 15K cells to 2K cells. The Mdm2 primary antibody was tested at 1:200 and 1:300 dilution. The secondary antibody conjugated to IRDye800CW was used with 1:800 dilution, and CellTag 700 Stain was used at 1:1000 dilution as manufacture recommended. The linearity of cell number versus signal was generated with Prism. The signal over background ratio was also calculated.
(§3) The potential PROTACs were evaluated in the wt p53 MCF7 cell line and in the mut p53 MDA-MB-231 cell line. Importantly these were compared to MD-224, which was recently reported to potently degrade Mdm2 in RS4; 11 leukemia cells (Li et al., 2019). Assay linearity was performed confirming a strong 4-fold signal to noise in the assay. A series of bi-functional molecules were then treated and evaluated for protein level in the assay over time from 2 h-48 h. […] In this wt p53 cancer cell line the stabilization of p53 (FIG. 15B), and subsequent p53-mediated transcriptional upregulation of Mdm2 make it difficult to observe degradation. […] These compounds were evaluated in the mutant p53 cancer cells. […] In this cell line, it takes approximately 16-24 h to detect the degradation. […] The difference in the molecules is that MD-224 utilizes a CRBN recruiting ligand.
Target sequence in this assay (Q00987 whole entry): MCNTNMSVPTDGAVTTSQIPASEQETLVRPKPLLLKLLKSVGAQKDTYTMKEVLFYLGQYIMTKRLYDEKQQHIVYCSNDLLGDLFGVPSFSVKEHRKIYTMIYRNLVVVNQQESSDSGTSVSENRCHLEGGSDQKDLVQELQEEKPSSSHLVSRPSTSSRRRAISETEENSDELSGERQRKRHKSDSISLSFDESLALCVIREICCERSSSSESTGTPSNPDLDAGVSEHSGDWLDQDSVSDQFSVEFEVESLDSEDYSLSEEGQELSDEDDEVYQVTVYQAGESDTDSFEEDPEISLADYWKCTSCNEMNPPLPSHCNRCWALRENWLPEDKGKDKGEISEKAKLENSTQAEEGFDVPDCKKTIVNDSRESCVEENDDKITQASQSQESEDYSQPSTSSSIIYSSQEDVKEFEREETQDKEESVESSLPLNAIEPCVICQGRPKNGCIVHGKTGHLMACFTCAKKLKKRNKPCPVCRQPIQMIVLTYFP

Mdm2 [2] = molecular target: T1, Mdm2; experiment: Mdm2 HTRF binding assay (Table 2); conditions: read-out: Mdm2 HTRF IC50
Description: An HTRF binding assay was developed using a biotinylated peptide containing the Mdm2-binding domain of p53 and a recombinant GST-tagged N-terminus of Mdm2 containing the p53-binding domain. HTRF is a proximity-based fluorescence energy transfer (FRET) assay that takes advantage of the unique time-resolved fluorescence of the lanthanide chelates, such as terbium and europium. HTRF IC50 values are provided for all key compounds (FIG. 13C, FIG. 19B, and Table 2).
Target sequence in this assay (Q00987 26-109 limits assumed): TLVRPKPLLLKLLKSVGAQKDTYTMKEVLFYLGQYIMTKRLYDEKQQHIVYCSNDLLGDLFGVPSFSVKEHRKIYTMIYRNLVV

mut p53 MDA-MD-231 cells = experiment: Live cell count with CellTag700 Stain in ICW format
Protocol: Cells are seeded in 96 half area well plates (black clear bottom) and cultured overnight. Then they are treated with compounds, fixed with 4% paraformaldehyde for 20 minutes, and permeabilized in 0.1% Triton. They are then treated with the primary antibody and secondary antibody conjugated to IRDye800CW or treated with CellTag 700 Stain. The plates are then scanned on the OdysseyCLX and the data processed to provide a dose response curve.
Since genetic deletion of Mdm2 induces p73 and induces apoptosis in p53 mutant and deficient cancer cells, YX-02-030 and YX-02-228 were evaluated for their effect on cell viability. First, the CellTag700 Stain was utilized to count the number of live cells in the ICW format.

MCF7 = experiment: Cytotoxicity to wild type p53 cells; assay type: cell-based; conditions: Homo sapiens
[3] = molecular target: T2, human cereblon (CRBN) complex (Homo sapiens, UniProt Q96SW2); experiment: HTRF binding assay for Cereblon (Table 2)
T2 construct: purchased R & D systems
Description: as §1
Cereblon: Recombinant human cereblon (CRBN) complex, including CUL4A, RBX1, DDB1 and CRBN is purchased from R & D systems. This four-member protein complex has an N-terminal HIS tag on the CUL4A subunit. The CRBN complex is diluted in assay buffer containing anti-HIS-Tb Cryptate Gold (CisBio) and is added to low volume 384-well plates. Test compounds in 100% DMSO are added to the plates followed by the Cy5-labeled lenolidamide probe. After 1 hour the HTRF signal is measured on the Envision. Data are normalized to % inhibition. The typical signal-to-noise is 5:1. Bi-functional molecules containing the Cereblon ligands are tested in TABLE 2 (see YX-02-041).

[4] = tested on: Mdm2-/-p53-/- sarcoma cells; experiment: Murine Mdm2-/-p53-/- sarcoma cells, MTT; assay type: cell-based, mouse; conditions: MTT assay, 48 hrs
Description: A-B. Murine Mdm2+/+p53-null sarcoma cells treated with Mdm2 PROTAC (YX-02-030), control YX-02-023 (−), or vehicle (DMSO). A. Western blots after 24 hrs (cleaved caspase 3, CC3. Mdm2^−/−p53^−/− fibroblasts were a control for the Western blot). B. Dose response curve (MTT assay, 48 hrs). C. Dose response curves of murine Mdm2^−/−p53^−/− sarcoma cells treated with Mdm2 PROTAC (YX-02-030), negative controls (−), a Bcl2/Bclx/Bclw inhibitor (+), or vehicle control (MTT assay, quadruplicate, 48 hrs- MTT assay, B-C graphed relative to DMSO).

Mdm2 [5] = molecular target: T1, Mdm2; experiment: In-Cell Western, wt p53 MCF7 cell line; assay type: cell-based; parameters: endogenous in cells; host or cells: MCF7 (A8); MDA-MB-231 (A9); conditions: wt p53 MCF7, 2 h-48 h
Protocol: as §2, §3
Target sequence in this assay (Q00987 whole entry): as the sequence (Q00987 whole entry) above

VHL complex = molecular target: T3, VHL complex (Homo sapiens, UniProt P40337); experiment: Inhibition of HIF-1α peptide binding to the VHL complex using HTRF (Table 3); conditions: mean ± S.E.M. of three replications; read-out: VHL-HIFa peptide IC50
T3 construct: purchased R&D systems E3-655-025
Protocol: Assays contained 2 nM of HIS-VHL complex (R&D systems, E3-655-025), 2 nM of biotin-hydroxyproline-HIF1α peptide (Biotin-[…] (SEQ ID NO: 2), X=hydroxyproline), 0.3 nM anti-HIS-Tb HTRF donor antibody and 4 nM streptavidin-d2 HTRF acceptor (PerkinElmer) in a final volume of 10 μL of 25 mM HEPES, pH 7.4, 150 mM NaCl, 5 mM DTT, 0.005% Tween20 in white low volume 384-well plates. Both HIS-VHL complex and biotin-HIF1α peptide were pre-incubated with their respective HTRF antibodies for 15 min. Test compounds were solubilized at 10 mM in DMSO and concentration series was added to the assay plate using the Echo 650 acoustic liquid handling system by direct dilution. The final amount of DMSO added to the assay was 100 nL […]. Compounds were pre-incubated with HIS-VHL complex before the addition of the biotin-HIF1α peptide. After a 2 hr incubation, the HTRF signal was measured using the ClarioStar plate reader (BMG Labtech). […] IC50 values were determined from nonlinear regression fits of a data to a four parameter dose-response equation using XLFit (IDBS). Data are the means±S.E.M. of three replications. The data is described in Table 3 above.

T3 sequence (P40337 whole entry): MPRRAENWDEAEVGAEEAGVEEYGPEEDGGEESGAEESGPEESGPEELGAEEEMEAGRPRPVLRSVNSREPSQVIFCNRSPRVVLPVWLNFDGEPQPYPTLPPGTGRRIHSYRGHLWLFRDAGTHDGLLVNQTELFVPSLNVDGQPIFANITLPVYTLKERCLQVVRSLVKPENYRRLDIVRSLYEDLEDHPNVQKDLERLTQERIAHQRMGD
T3 sequence (Q15370 whole entry partner): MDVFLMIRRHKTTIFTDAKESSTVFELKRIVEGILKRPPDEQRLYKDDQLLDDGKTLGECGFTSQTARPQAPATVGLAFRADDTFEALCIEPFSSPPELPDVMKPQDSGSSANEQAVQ
T3 sequence (Q15369 whole entry partner): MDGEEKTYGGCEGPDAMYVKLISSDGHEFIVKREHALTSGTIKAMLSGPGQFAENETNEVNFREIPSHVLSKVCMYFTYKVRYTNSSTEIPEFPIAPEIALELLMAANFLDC
T3 sequence (Q13617 whole entry partner): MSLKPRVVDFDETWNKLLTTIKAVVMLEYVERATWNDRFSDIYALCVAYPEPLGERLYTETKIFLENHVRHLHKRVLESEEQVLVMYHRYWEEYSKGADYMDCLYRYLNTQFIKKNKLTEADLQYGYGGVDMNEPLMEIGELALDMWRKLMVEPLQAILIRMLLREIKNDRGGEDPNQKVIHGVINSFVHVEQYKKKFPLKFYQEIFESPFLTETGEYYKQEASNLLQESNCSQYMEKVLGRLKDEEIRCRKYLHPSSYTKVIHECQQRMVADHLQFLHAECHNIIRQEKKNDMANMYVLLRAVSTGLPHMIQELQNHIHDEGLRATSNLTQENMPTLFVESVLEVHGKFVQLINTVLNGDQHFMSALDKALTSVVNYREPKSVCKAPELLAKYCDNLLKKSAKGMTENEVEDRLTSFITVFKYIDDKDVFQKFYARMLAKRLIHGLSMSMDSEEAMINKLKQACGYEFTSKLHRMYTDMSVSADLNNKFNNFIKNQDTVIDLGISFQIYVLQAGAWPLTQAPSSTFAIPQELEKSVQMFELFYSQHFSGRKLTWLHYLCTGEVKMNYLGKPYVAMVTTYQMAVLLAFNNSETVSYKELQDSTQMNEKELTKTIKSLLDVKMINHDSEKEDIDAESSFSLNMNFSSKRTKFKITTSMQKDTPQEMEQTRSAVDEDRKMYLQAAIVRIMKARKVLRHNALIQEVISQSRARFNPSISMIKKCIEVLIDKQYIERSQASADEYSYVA
T3 sequence (P62877 whole entry partner): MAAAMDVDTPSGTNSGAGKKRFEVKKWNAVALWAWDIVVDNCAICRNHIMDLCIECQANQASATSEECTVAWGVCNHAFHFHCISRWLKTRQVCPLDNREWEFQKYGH
Sequence of VHL (P40337 whole entry): as the sequence (P40337 whole entry) above
Sequence of VHL (Q15370 whole entry partner): as the sequence (Q15370 whole entry partner) above
Sequence of VHL (Q15369 whole entry partner): as the sequence (Q15369 whole entry partner) above
T2 sequence (Q96SW2 whole entry): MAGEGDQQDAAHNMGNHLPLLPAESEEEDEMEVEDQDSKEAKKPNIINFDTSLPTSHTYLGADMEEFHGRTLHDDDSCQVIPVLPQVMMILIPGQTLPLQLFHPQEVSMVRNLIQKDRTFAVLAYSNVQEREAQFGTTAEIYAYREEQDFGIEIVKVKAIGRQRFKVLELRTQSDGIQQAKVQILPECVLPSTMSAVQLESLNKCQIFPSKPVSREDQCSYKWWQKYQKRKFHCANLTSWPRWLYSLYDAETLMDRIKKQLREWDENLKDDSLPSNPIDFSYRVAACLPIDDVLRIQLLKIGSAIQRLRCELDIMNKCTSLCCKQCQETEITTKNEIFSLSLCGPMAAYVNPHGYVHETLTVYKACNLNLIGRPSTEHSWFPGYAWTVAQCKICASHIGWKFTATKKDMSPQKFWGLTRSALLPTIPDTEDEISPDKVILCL
T2 sequence (Q16531 whole entry partner): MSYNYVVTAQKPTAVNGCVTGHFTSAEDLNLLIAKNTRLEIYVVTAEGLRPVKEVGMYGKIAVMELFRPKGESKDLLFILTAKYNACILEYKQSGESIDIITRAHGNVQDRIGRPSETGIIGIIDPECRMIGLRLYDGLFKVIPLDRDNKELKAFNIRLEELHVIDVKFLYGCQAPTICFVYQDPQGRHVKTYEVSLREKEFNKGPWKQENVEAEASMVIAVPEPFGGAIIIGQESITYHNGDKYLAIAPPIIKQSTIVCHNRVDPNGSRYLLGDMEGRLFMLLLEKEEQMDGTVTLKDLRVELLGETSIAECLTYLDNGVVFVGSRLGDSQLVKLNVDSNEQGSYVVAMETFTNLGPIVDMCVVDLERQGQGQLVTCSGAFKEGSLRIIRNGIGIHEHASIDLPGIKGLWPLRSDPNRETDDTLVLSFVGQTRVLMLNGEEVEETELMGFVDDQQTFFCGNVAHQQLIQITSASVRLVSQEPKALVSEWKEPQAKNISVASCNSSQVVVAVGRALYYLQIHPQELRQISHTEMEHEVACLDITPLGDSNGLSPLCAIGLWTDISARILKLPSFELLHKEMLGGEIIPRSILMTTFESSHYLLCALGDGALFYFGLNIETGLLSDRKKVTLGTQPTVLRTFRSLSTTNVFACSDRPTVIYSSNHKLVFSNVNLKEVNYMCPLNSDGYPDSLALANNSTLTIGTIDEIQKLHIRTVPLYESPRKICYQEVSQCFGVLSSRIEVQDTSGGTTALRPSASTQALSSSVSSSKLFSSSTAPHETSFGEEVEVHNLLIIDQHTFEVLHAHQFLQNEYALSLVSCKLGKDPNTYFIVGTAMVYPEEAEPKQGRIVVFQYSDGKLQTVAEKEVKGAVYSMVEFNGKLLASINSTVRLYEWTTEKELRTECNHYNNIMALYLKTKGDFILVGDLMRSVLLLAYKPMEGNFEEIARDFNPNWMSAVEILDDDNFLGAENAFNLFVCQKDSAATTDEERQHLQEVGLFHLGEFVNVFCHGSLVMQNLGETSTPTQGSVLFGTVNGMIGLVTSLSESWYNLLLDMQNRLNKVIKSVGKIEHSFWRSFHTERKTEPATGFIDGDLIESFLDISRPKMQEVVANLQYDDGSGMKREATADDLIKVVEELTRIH
T2 sequence (Q13619 whole entry partner): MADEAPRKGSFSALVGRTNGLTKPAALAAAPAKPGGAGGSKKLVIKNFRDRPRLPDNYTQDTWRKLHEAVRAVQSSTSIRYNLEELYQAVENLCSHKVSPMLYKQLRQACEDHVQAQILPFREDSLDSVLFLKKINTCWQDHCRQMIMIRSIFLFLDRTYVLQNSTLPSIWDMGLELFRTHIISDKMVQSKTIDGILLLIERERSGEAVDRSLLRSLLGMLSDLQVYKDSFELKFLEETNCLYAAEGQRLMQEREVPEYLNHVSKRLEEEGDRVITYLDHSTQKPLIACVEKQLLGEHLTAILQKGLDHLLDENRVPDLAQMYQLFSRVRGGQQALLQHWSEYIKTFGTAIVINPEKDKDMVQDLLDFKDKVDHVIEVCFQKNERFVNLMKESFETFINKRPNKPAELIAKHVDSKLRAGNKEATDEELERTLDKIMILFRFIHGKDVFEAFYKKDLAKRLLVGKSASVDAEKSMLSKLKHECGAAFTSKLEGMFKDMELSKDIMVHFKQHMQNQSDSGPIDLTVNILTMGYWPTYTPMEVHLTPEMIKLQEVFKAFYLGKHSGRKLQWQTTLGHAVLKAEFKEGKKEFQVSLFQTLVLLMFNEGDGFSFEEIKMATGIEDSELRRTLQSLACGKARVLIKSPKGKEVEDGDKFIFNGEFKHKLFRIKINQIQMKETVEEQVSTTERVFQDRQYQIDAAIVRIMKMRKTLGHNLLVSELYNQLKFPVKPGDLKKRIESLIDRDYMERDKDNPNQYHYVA
T2 sequence (P62877 whole entry partner): as the sequence (P62877 whole entry partner) above

CCOc1cc(C(C)(C)C)ccc1C1=N[C@@](C)(c2ccc(Cl)cc2)[C@@](C)(c2ccc(Cl)cc2)N1C(=O)N1CCN(CC(=O)NCCCCNC(=O)COc2cccc3c2C(=O)N(C2CCC(=O)NC2=O)C3=O)CC1 (mixture of isomers) [YX-02-041, 2-(4-((4S,5R)-2-(4-(tert-butyl)-2-ethoxyphenyl)-4,5-bis(4-chlorophenyl)-4,5-dimethyl-4,5-dihydro-1H-imidazole-1-carbonyl)piperazin-1-yl)-N-(4-(2-((2-(2,6-dioxopiperidin-3-yl)-1,3-dioxoisoindolin-4-yl)oxy)acetamido)butyl)acetamide]
IC50 (VHL): > 10 µM
Mdm2 degradation (Mdm2 [1]): did not provide robust degradation
IC50 (Mdm2 [2]): 0.003 µM
cytotoxicity to mutant p53 cells (mut p53 MDA-MD-231 cells; other studies, compared with MCF7): much less cytotoxic
IC50 (MCF7): ~20 µM

CCOc1cc(C(C)(C)C)ccc1C1=NC(C)(c2ccc(Cl)cc2)C(C)(c2ccc(Cl)cc2)N1C(=O)N1CCN(CC(=O)N[C@H](C(=O)N2C[C@H](O)C[C@H]2C(=O)NCc2ccc(-c3scnc3C)cc2)C(C)(C)C)CC1 (stereo in doubt) [YX-02-230, 1-(2-(2-(4-((4S,5R)-2-(4-(tert-butyl)-2-ethoxyphenyl)-4,5-bis(4-chlorophenyl)-4,5-dimethyl-4,5-dihydro-1H-imidazole-1-carbonyl)piperazin-1-yl)acetamido)-3,3-dimethylbutanoyl)-4-hydroxy-N-(4-(4-methylthiazol-5-yl)benzyl)pyrrolidine-2-carboxamide]
IC50 [3]: > 10 µM
IC50 (Mdm2 [2]): 0.018 µM

CC1(C)CCC(c2ccc(Cl)cc2)=C(CN2CCN(c3ccc(C(=O)NS(=O)(=O)c4ccc(N[C@H](CCN5CCOCC5)CSc5ccccc5)c(S(=O)(=O)C(F)(F)F)c4)cc3)CC2)C1 [ABT-263/Navitoclax, Navitoclax, reference compound]
response of Mdm2-/-p53-/- sarcoma cells [4]: responsive

O=C1CCC(N2Cc3c(C#CCCCNC(=O)c4ccc(NC(=O)[C@@H]5NC6(CCCCC6)[C@@]6(C(=O)Nc7cc(Cl)ccc76)[C@H]5c5cccc(Cl)c5F)cc4)cccc3C2=O)C(=O)N1 (stereo partly drawn) [MD-224, reference compound]
Mdm2 degradation (Mdm2 [1]): did not reduce Mdm2 protein level
cytotoxic effect, number of live cells (mut p53 MDA-MD-231 cells; after 24 h and 48 h treatment): no cytotoxic effect
Mdm2 protein level (Mdm2 [5]): modest degradation

COc1ccc(C2=N[C@@H](c3ccc(Cl)cc3)[C@@H](c3ccc(Cl)cc3)N2C(=O)N2CCNC(=O)C2)c(OC(C)C)c1 [Nutlin-3, reference compound]
IC50 (VHL complex): > 10 µM
